Results as given in patent US20260297080A1, “BICYCLIC COMPOUNDS AS CDK INHIBITORS” (BeOne Medicines I GmbH, priority 2022, published 2026).

Legend:
[1] = molecular target: CDK2/Cyclin E1 (Homo sapiens, UniProt P24941); assay: CDK2/Cyclin E1 Biochemical Assay (TR-FRET), 0.060 mM ATP; conditions: 0.15 μM Rb (Ser780)-biotin substrate, pH7.0, 60 min preincubation, 120 min reaction, room temperature
Summary of the method: (§1)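 TR-FRET assay with 0.15 μM Rb (Ser780)-biotin substrate and 0-10 μM compound in 50 mM HEPES pH7.0, 50 mM MgCl2, 1 mM DTT. ATP was 0.060 mM for CDK2/Cyclin E1 and 0.015 mM for CDK1/Cyclin B1. Kinase was preincubated with compound 60 min, reacted 120 min at room temperature, and IC50 was fitted (four-parameter) from the 665/620 nm ratio.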

[2] = molecular target: CDK1/Cyclin B1 (Homo sapiens, UniProt P06493); assay: CDK1/Cyclin B1 Biochemical Assay (TR-FRET), 0.015 mM ATP; conditions: 0.15 μM Rb (Ser780)-biotin substrate, pH7.0, 60 min preincubation, 120 min reaction, room temperature
Summary of the method: as §1

CDK1/Cyclin B1, sequence (P06493 whole entry): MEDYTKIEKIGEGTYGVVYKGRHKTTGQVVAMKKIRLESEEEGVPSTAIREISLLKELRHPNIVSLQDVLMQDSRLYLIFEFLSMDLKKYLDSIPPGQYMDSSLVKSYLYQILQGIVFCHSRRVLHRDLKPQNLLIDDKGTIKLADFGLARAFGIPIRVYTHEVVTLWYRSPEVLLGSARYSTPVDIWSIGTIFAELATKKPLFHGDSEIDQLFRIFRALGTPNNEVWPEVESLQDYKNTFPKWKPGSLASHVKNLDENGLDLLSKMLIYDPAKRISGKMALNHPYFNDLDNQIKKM
CDK1/Cyclin B1, sequence (P14635 whole entry partner): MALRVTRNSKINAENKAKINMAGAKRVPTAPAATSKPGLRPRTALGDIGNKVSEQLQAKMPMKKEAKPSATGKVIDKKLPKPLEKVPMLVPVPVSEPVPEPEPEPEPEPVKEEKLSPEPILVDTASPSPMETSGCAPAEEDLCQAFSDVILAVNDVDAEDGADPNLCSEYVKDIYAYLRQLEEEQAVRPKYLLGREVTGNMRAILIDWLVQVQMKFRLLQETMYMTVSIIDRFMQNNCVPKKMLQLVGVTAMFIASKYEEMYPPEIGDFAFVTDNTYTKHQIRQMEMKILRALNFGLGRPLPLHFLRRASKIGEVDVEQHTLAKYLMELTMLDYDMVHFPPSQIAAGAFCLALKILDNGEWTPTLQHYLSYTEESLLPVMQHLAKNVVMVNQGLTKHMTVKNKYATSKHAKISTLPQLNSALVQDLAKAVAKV

| Compound | IC50 [1] [nM] | IC50 [2] [nM] |
| --- | --- | --- |
| CC1(NC(=O)O[C@H]2CC[C@@H](c3cc(Nc4ccc5c(c4F)CN(C4CC4)S5(=O)=O)n[nH]3)C2)CCOC1 (relative stereo) [Example 358, cis-3-(3-((2-cyclopropyl-4-fluoro-1,1-dioxido-2,3-dihydrobenzo[d]isothiazol-5-yl)amino)-1H-pyrazol-5-yl)cyclopentyl(3-methyltetrahydrofuran-3-yl)carbamate] | 2.6 | 221 |
| COCC1(NC(=O)O[C@H]2CC[C@@H](c3cc(Nc4ccc5c(c4F)CNS5(=O)=O)n[nH]3)C2)CC1 (racemic) [Example 158, cis-3-(3-((4-fluoro-1,1-dioxido-2,3-dihydrobenzo[d]isothiazol-5-yl)amino)-1H-pyrazol-5-yl)cyclopentyl(1-(methoxymethyl)cyclopropyl)carbamate] | 3.1 | 123 |
| CN1Cc2c(ccc(Nc3cc([C@@H]4CC[C@H](OC(=O)NCC(C)(C)O)C4)[nH]n3)c2F)S1(=O)=O (relative stereo) [Example 168, cis-3-(3-((4-fluoro-2-methyl-1,1-dioxido-2,3-dihydrobenzo[d]isothiazol-5-yl)amino)-1H-pyrazol-5-yl)cyclopentyl(2-hydroxy-2-methylpropyl)carbamate] | 12 | 545 |
| CC[C@H](C)NC(=O)O[C@H]1CC[C@@H](c2cc(Nc3ccc4c(c3F)CN(C3COC3)S4(=O)=O)n[nH]2)C1 (single isomer, unassigned) [Example 134b] | 1.3 | 120 |
| CC(C)NC(=O)O[C@H]1CC[C@@H](c2cc(Nc3ccc4c(c3F)CS(=O)(=O)N4CC(C)(C)O)n[nH]2)C1 (racemic) [Example 254, cis-3-(3-((4-fluoro-1-(2-hydroxy-2-methylpropyl)-2,2-dioxido-1,3-dihydrobenzo[c]isothiazol-5-yl)amino)-1H-pyrazol-5-yl)cyclopentyl isopropylcarbamate] | 10 | 249 |
| CC1(NC(=O)O[C@H]2CC[C@@H](c3cc(Nc4ccc5c(c4F)CNS5(=O)=O)n[nH]3)C2)CCOC1 (single isomer, unassigned) [Example 162c, cis-3-(3-((4-fluoro-1,1-dioxido-2,3-dihydrobenzo[d]isothiazol-5-yl)amino)-1H-pyrazol-5-yl)cyclopentyl(3-methyltetrahydrofuran-3-yl)carbamate] | 3.1 | 408 |
| CCCNC(=O)O[C@H]1CC[C@@H](c2cc(Nc3ccc4c(c3F)CN(C3CC3)S4(=O)=O)n[nH]2)C1 (single isomer, unassigned) [Example 118a, cis-3-(3-((2-cyclopropyl-4-fluoro-1,1-dioxido-2,3-dihydrobenzo[d]isothiazol-5-yl)amino)-1H-pyrazol-5-yl)cyclopentyl propylcarbamate] | 14 | 395 |
| C[C@@H](CO)NC(=O)O[C@H]1CC[C@@H](c2cc(Nc3ccc4c(c3F)CNS4(=O)=O)n[nH]2)C1 (single isomer, unassigned) [Example 328a] | 10 | 315 |
| CC(C)NC(=O)O[C@H]1CC[C@@H](c2cc(Nc3cc4c(cc3F)CNS4(=O)=O)n[nH]2)C1 (single isomer, unassigned) [Example 1b, cis-3-(3-((5-fluoro-1,1-dioxido-2,3-dihydrobenzo[d]isothiazol-6-yl)amino)-1H-pyrazol-5-yl)cyclopentyl isopropylcarbamate] | 18 | 259 |
| CC[C@H](C)NC(=O)O[C@H]1CC[C@@H](c2cc(Nc3ccc4c(c3F)C(C)(C)NS4(=O)=O)n[nH]2)C1 (relative stereo) [Example 57, cis-3-(3-((4-fluoro-3,3-dimethyl-1,1-dioxido-2,3-dihydrobenzo[d]isothiazol-5-yl)amino)-1H-pyrazol-5-yl)cyclopentyl((S)-sec-butyl)carbamate] | 48 | 1080 |
| CC(C)NC(=O)O[C@H]1CC[C@@H](c2cc(Nc3ccc4c(c3F)CN(C3CCC3)S4(=O)=O)n[nH]2)C1 (relative stereo) [Example 67, cis-3-(3-((2-cyclobutyl-4-fluoro-1,1-dioxido-2,3-dihydrobenzo[d]isothiazol-5-yl)amino)-1H-pyrazol-5-yl)cyclopentyl isopropylcarbamate] | 14 | 472 |
| COCCN1c2ccc(Nc3cc([C@@H]4CC[C@H](OC(=O)NC(C)C)C4)[nH]n3)c(F)c2CS1(=O)=O (relative stereo) [Example 252, cis-3-(3-((4-fluoro-1-(2-methoxyethyl)-2,2-dioxido-1,3-dihydrobenzo[c]isothiazol-5-yl)cyclopentyl isopropylcarbamate] | 3.8 | 79 |
| COCC(C)(C)NC(=O)O[C@H]1CC[C@@H](c2cc(Nc3ccc4c(c3F)CN(C)S4(=O)=O)n[nH]2)C1 (relative stereo) [Example 379, cis-3-(3-((4-fluoro-2-methyl-1,1-dioxido-2,3-dihydrobenzo[d]isothiazol-5-yl)amino)-1H-pyrazol-5-yl)cyclopentyl(1-methoxy-2-methylpropan-2-yl)carbamate] | 4.5 | 230 |
| O=C(NC1CCC(O)CC1)O[C@H]1CC[C@@H](c2cc(Nc3ccc4c(c3F)CNS4(=O)=O)n[nH]2)C1 (single isomer, unassigned) [Example 143, cis-3-(3-((4-fluoro-1,1-dioxido-2,3-dihydrobenzo[d]isothiazol-5-yl)amino)-1H-pyrazol-5-yl)cyclopentyl(4-hydroxycyclohexyl)carbamate] | 4.9 | 242 |
| CC[C@H](C)NC(=O)O[C@H]1CC[C@@H](c2cc(Nc3ccc4c(c3F)C(C)NS4(=O)=O)n[nH]2)C1 (single isomer, unassigned) [Example 54b] | 2.7 | 564 |
| COCC(C)(C)NC(=O)O[C@H]1CC[C@@H](c2cc(Nc3ccc4c(c3)CS(=O)(=O)N4)n[nH]2)C1 (relative stereo) [Example 370, cis-3-(3-((2,2-dioxido-1,3-dihydrobenzo[c]isothiazol-5-yl)amino)-1H-pyrazol-5-yl)cyclopentyl(1-methoxy-2-methylpropan-2-yl)carbamate] | 1.1 | 9.7 |
| CC(C)NC(=O)O[C@H]1CC[C@@H](c2cc(Nc3ccc4c(c3F)CN(CC3CN(C)C3)S4(=O)=O)n[nH]2)C1 (relative stereo) [Example 106, cis-3-(3-((4-fluoro-2-((1-methylazetidin-3-yl)methyl)-1,1-dioxido-2,3-dihydrobenzo[d]isothiazol-5-yl)amino)-1H-pyrazol-5-yl)cyclopentyl isopropylcarbamate] | 6 | 631 |
| CC1(NC(=O)O[C@H]2CC[C@@H](c3cc(Nc4ccc5c(c4F)CS(=O)(=O)N5CC(F)(F)F)n[nH]3)C2)CC1 (single isomer, unassigned) [Example 264b, cis-3-(3-((4-fluoro-2,2-dioxido-1-(2,2,2-trifluoroethyl)-1,3-dihydrobenzo[c]isothiazol-5-yl)amino)-1H-pyrazol-5-yl)cyclopentyl(1-methylcyclopropyl)carbamate] | 1.1 | 22 |
| CCCNC(=O)O[C@H]1C[C@@H](c2cc(Nc3cc4c(cc3F)S(=O)(=O)NC4)n[nH]2)C1 [Example 50, cis-3-(3-((6-fluoro-1,1-dioxido-2,3-dihydrobenzo[d]isothiazol-5-yl)amino)-1H-pyrazol-5-yl)cyclobutyl propylcarbamate] | 5.6 | 140 |
| COCC(C)(C)NC(=O)O[C@H]1CC[C@@H](c2cc(Nc3ccc4c(c3F)CS(=O)(=O)N4CC(F)(F)F)n[nH]2)C1 (relative stereo) [Example 416, cis-3-(3-((4-fluoro-2,2-dioxido-1-(2,2,2-trifluoroethyl)-1,3-dihydrobenzo[c]isothiazol-5-yl)amino)-1H-pyrazol-5-yl)cyclopentyl(1-methoxy-2-methylpropan-2-yl)carbamate] | 2.1 | 67 |
| C[C@H]1[C@H](O)CN1C(=O)O[C@H]1CC[C@@H](c2cc(Nc3ccc4c(c3F)CNS4(=O)=O)n[nH]2)C1 (relative stereo) [Example 145, cis-3-(3-((4-fluoro-1,1-dioxido-2,3-dihydrobenzo[d]isothiazol-5-yl)amino)-1H-pyrazol-5-yl)cyclopentyl(2S,3R)-3-hydroxy-2-methylazetidine-1-carboxylate] | 14 | 267 |
| CC[C@H](C)NC(=O)O[C@H]1CC[C@@H](c2cc(Nc3ccc4c(c3F)CN(C3CC3)S4(=O)=O)n[nH]2)C1 (single isomer, unassigned) [Example 117b] | 1.8 | 91 |
| CC(C)NC(=O)O[C@H]1CC[C@@H](c2cc(Nc3ccc4c(c3)C(C)(C)NS4(=O)=O)n[nH]2)C1 (relative stereo) [Example 6, cis-3-(3-((3,3-dimethyl-1,1-dioxido-2,3-dihydrobenzo[d]isothiazol-5-yl)amino)-1H-pyrazol-5-yl)cyclopentyl isopropylcarbamate] | 6.5 | 108 |
| CC1(NC(=O)O[C@H]2CC[C@@H](c3cc(Nc4ccc5c(c4F)CNS5(=O)=O)n[nH]3)C2)CCOC1 (mixture of isomers) [Example 162, cis-3-(3-((4-fluoro-1,1-dioxido-2,3-dihydrobenzo[d]isothiazol-5-yl)amino)-1H-pyrazol-5-yl)cyclopentyl(3-methyltetrahydrofuran-3-yl)carbamate] | 2.4 | 163 |
| CC(NC(=O)O[C@H]1CC[C@@H](c2cc(Nc3cc4c(cc3F)S(=O)(=O)NC4)n[nH]2)C1)C1CC1 (relative stereo) [Example 413, cis-3-(3-((6-fluoro-1,1-dioxido-2,3-dihydrobenzo[d]isothiazol-5-yl)amino)-1H-pyrazol-5-yl)cyclopentyl(1-cyclopropylethyl)carbamate] | 3.5 | 412 |
